Assay results as given in the supplement of paper PMC10883282.

Assays:
Assay in all cases: relative viability vs DMSO control (72 h) (fraction); higher = more viable cells
G401 = system: G401
How it was run: (§1)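 Relative viability was measured with ATPLite and expressed as percent growth, averaged across up to triplicate wells. Sarcoma cell lines had been seeded in 384-well plates to reach 80–90% confluence, dosed after 24 h, and incubated 72 h at 37 °C, 5% CO2. All data were rescaled on a scale where 1 is full and 0 is none.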

A204 = system: A204
How it was run: as §1

SW1353 = system: SW1353
How it was run: as §1

SK-ES-1 = system: SK-ES-1
How it was run: as §1

HT1080 = system: HT1080
How it was run: as §1

SW684 = system: SW684
How it was run: as §1

SW982 = system: SW982
How it was run: as §1

SW872 = system: SW872
How it was run: as §1

RD-ES = system: RD-ES
How it was run: as §1

KHOS-240S = system: KHOS-240S
How it was run: as §1

KHOS-NP = system: KHOS-NP
How it was run: as §1

SYO-1 = system: SYO-1
How it was run: as §1

Cn1cc(C2=C(c3cn(C4CCN(Cc5ccccn5)CC4)c4ccccc34)C(=O)NC2=O)c2ccccc21 [Enzastaurin]
Conditions | relative viability
A204, 0.00017 µM | 1.07
A204, 0.00051 µM | 1.13
A204, 0.00152 µM | 1.13
A204, 0.00457 µM | 1.12
A204, 0.01372 µM | 1.11
A204, 0.04115 µM | 1.07
A204, 0.1235 µM | 1.07
A204, 0.3704 µM | 1.1
A204, 1.111 µM | 1.09
A204, 3.333 µM | 1.08
A204, 10 µM | 0.906
G401, 0.00017 µM | 1.08
G401, 0.00051 µM | 1.1
G401, 0.00152 µM | 1.07
G401, 0.00457 µM | 1.04
G401, 0.01372 µM | 1.05
G401, 0.04115 µM | 1.05
G401, 0.1235 µM | 1.09
G401, 0.3704 µM | 1.06
G401, 1.111 µM | 1.13
G401, 3.333 µM | 1.21
G401, 10 µM | 1.31
HT1080, 0.00017 µM | 1.14
HT1080, 0.00051 µM | 1.14
HT1080, 0.00152 µM | 1.11
HT1080, 0.00457 µM | 1.11
HT1080, 0.01372 µM | 1.12
HT1080, 0.04115 µM | 1.14
HT1080, 0.1235 µM | 1.14
HT1080, 0.3704 µM | 1.11
HT1080, 1.111 µM | 1.15
HT1080, 3.333 µM | 1.37
HT1080, 10 µM | 1.365
KHOS-240S, 0.00017 µM | 1.06
KHOS-240S, 0.00051 µM | 1.1
KHOS-240S, 0.00152 µM | 1.08
KHOS-240S, 0.00457 µM | 1.09
KHOS-240S, 0.01372 µM | 1.1
KHOS-240S, 0.04115 µM | 1.09
KHOS-240S, 0.1235 µM | 1.07
KHOS-240S, 0.3704 µM | 1.08
KHOS-240S, 1.111 µM | 1.08
KHOS-240S, 3.333 µM | 1.01
KHOS-240S, 10 µM | 0.732
KHOS-NP, 0.00017 µM | 1.12
KHOS-NP, 0.00051 µM | 1.13
KHOS-NP, 0.00152 µM | 1.12
KHOS-NP, 0.00457 µM | 1.131
KHOS-NP, 0.01372 µM | 1.14
KHOS-NP, 0.04115 µM | 1.12
KHOS-NP, 0.1235 µM | 1.13
KHOS-NP, 0.3704 µM | 1.12
KHOS-NP, 1.111 µM | 1.11
KHOS-NP, 3.333 µM | 1.1
KHOS-NP, 10 µM | 1.1
RD-ES, 0.00017 µM | 0.992
RD-ES, 0.00051 µM | 0.997
RD-ES, 0.00152 µM | 1
RD-ES, 0.00457 µM | 1.01
RD-ES, 0.01372 µM | 0.996
RD-ES, 0.04115 µM | 1.01
RD-ES, 0.1235 µM | 1.01
RD-ES, 0.3704 µM | 0.981
RD-ES, 1.111 µM | 1.02
RD-ES, 3.333 µM | 1.02
RD-ES, 10 µM | 1.04
SK-ES-1, 0.00017 µM | 1.09
SK-ES-1, 0.00051 µM | 1.06
SK-ES-1, 0.00152 µM | 1.11
SK-ES-1, 0.00457 µM | 1.08
SK-ES-1, 0.01372 µM | 1.11
SK-ES-1, 0.04115 µM | 1.08
SK-ES-1, 0.1235 µM | 1.08
SK-ES-1, 0.3704 µM | 1.04
SK-ES-1, 1.111 µM | 1.11
SK-ES-1, 3.333 µM | 1.1
SK-ES-1, 10 µM | 0.914
SW684, 0.00017 µM | 1.17
SW684, 0.00051 µM | 1.18
SW684, 0.00152 µM | 1.22
SW684, 0.00457 µM | 1.18
SW684, 0.01372 µM | 1.2
SW684, 0.04115 µM | 1.17
SW684, 0.1235 µM | 1.17
SW684, 0.3704 µM | 1.18
SW684, 1.111 µM | 1.11
SW684, 3.333 µM | 0.956
SW684, 10 µM | 0.944
SW872, 0.00017 µM | 1.07
SW872, 0.00051 µM | 1.09
SW872, 0.00152 µM | 1.08
SW872, 0.00457 µM | 1.06
SW872, 0.01372 µM | 1.01
SW872, 0.04115 µM | 1.08
SW872, 0.1235 µM | 1.04
SW872, 0.3704 µM | 1.09
SW872, 1.111 µM | 1.05
SW872, 3.333 µM | 1.06
SW872, 10 µM | 0.96
SW982, 0.00017 µM | 1.06
SW982, 0.00051 µM | 1.06
SW982, 0.00152 µM | 1.08
SW982, 0.00457 µM | 1.08
SW982, 0.01372 µM | 1.08
SW982, 0.04115 µM | 1.069
SW982, 0.1235 µM | 1.05
SW982, 0.3704 µM | 1.06
SW982, 1.111 µM | 1.012
SW982, 3.333 µM | 0.903
SW982, 10 µM | 0.679
SW1353, 0.00017 µM | 1.1
SW1353, 0.00051 µM | 1.09
SW1353, 0.00152 µM | 1.104
SW1353, 0.00457 µM | 1.1
SW1353, 0.01372 µM | 1.08
SW1353, 0.04115 µM | 1.09
SW1353, 0.1235 µM | 1.07
SW1353, 0.3704 µM | 1.04
SW1353, 1.111 µM | 0.949
SW1353, 3.333 µM | 0.857
SW1353, 10 µM | 0.809
SYO-1, 0.00017 µM | 1.04
SYO-1, 0.00051 µM | 1.016
SYO-1, 0.00152 µM | 0.999
SYO-1, 0.00457 µM | 0.9983
SYO-1, 0.01372 µM | 0.971
SYO-1, 0.04115 µM | 0.989
SYO-1, 0.1235 µM | 0.959
SYO-1, 0.3704 µM | 0.983
SYO-1, 1.111 µM | 1.01
SYO-1, 3.333 µM | 0.96
SYO-1, 10 µM | 0.929
